Key:
arNOX [1] = assay: arNOX activity of saliva (person), ferricytochrome c reduction; assay type: biochemical, human; conditions: for inhibition of arNOX activity of saliva: 1 mg/ml, saliva from person; for augmentation of low activity N. tazetta powder: FIGS. 1a and 1b; for arNOX inhibition (result in words): substance or extract alone
Procedure: Of the mixture, 60 μl was added to at total of three ml of assay mixture containing saliva as the arNOX activity source.
The assay consists of 150 μl serum or 40 μl buffy coats in PBSG buffer (8.06 g NaCl, 0.2 g KCl, 0.18 g Na2HPO4, 0.26 g KH2PO4, 0.13 g CaCl2, 0.1 g MgCl2 1.35 g glucose dissolved in 1000 ml deionized water, adjusted to pH 7.4, filtered and stored at 4° C.) Rates were determined using an SLM Aminco DW-2000 spectrophotometer (Milton Roy, Rochester, N.Y., USA) in the dual wave length mode of operation with continuous measurements over 1 min every 1.5 min. After 45 min, test compounds were added and the reaction was continued for 45 min. After 45 min. a millimolar extinction coefficient of 19.1 cm^−1 was used for reduced ferricytochrome c. Extracts were made of the compounds in water unless otherwise indicated.

arNOX [2] = assay: arNOX inhibition, superoxide-dependent reduction of ferric cytochrome c with serum or buffy coats (Table 1); assay type: biochemical; conditions: 25 μg/ml
Procedure: Superoxide Production By Buffy Coats: Buffy coats, a mixture of lymphocytes and platelets. Such buffy coats are commercially available from, for example, Rockland ImmunoChemicals (Gilbertsville, Pa.). The blood samples were maintained at 4° C. prior to collection and assay. Ca. 10^7 cells were added to each assay. Cell numbers were determined using a hemocytometer.
Reduction of ferric cytochrome c by superoxide was employed as a standard measure of superoxide formation (Mayo, L. A. and Cumutte, J. (1990) Meth. Enzyme. 186, 567-575. 7. Butler, J, Koppenol, W. H. and Margollash, E. (1982) J. Biol. Chem. 257, 10747). This is a widely accepted method when coupled to superoxide dismutase inhibition for the measurement of superoxide generation. The assay consists of 150 μl serum or 40 μl buffy coats in PBSG buffer (8.06 g NaCl, 0.2 g KCl, 0.18 g Na2HPO4, 0.26 g KH2PO4, 0.13 g CaCl2, 0.1 g MgCl2 1.35 g glucose dissolved in 1000 ml deionized water, adjusted to pH 7.4, filtered and stored at 4° C.) Rates were determined using an SLM Aminco DW-2000 spectrophotometer (Milton Roy, Rochester, N.Y., USA) in the dual wave length mode of operation with continuous measurements over 1 min every 1.5 min. After 45 min, test compounds were added and the reaction was continued for 45 min. After 45 min. a millimolar extinction coefficient of […] was used for reduced ferricytochrome c. Extracts were made of the compounds in water unless otherwise indicated.

Compound | inhibition of arNOX activity of saliva (arNOX [1]) | augmentation of low activity N. tazetta powder (arNOX [1]) | arNOX inhibition (result in words) (arNOX [1]) | ArNOX ACTIVITY % OF NO ADDITION (arNOX [2]; Ethanol) | also measured
O=C(NO)c1ccccc1O [SHAM, salicyl hydroxamate] | greater than 90% | notably decreased arNOX activity | – | – | arNOX activity after addition to N. tazetta powder extract (arNOX [1]; saliva of person, FIG. 1a): nearly complete inhibition; concentration at which inhibition of arNOX activity is largely complete (arNOX [1]; saliva, FIG. 7): 11 mg/mL
OCc1ccccc1O[C@@H]1O[C@H](CO)[C@@H](O)[C@H](O)[C@H]1O [salicin] | – | notably decreased arNOX activity | active as a single agent | – | augmentation of arNOX inhibition of mixtures of Schizandra chinensis powder and N. tazetta powder/extract (arNOX [1]; 1 mg/ml salicin, FIGS. 10a, 10b): active in augmenting the arNOX inhibition; active concentration relative to SHAM (Naractin 1) or salicylic acid (Naractin 2) (arNOX [1]; FIG. 9): active at a ten-fold lower concentration; concentration at which maximum inhibition of arNOX activity is achieved (arNOX [1]; saliva, FIG. 9): 1 mg/mL
CC1=C(/C=C/C(C)=C/C=C/C(C)=C/C=C/C=C(C)/C=C/C=C(C)/C=C/C2=C(C)C(=O)[C@@H](O)CC2(C)C)C(C)(C)C[C@H](O)C1=O [Natural astaxanthin, astaxanthin] | – | – | – | 62% | –
O=C(O)c1ccccc1O [Salicylic acid, salicylic acid] | about 50% | – | found to inhibit arNOX activity | – | –
CC(=O)Oc1ccccc1C(=O)O [aspirin, reference compound] | – | – | did not inhibit arNOX activity | – | –
CC1=C(/C=C/C(C)=C/C=C/C(C)=C/C=C/C=C(C)/C=C/C=C(C)/C=C/C2=C(C)CCCC2(C)C)C(C)(C)CCC1 [β-Carotene] | – | – | – | 68% | ArNOX ACTIVITY % OF NO ADDITION (arNOX [2]; Water): 28%

Source: patent US20090246152A1, “NARACTIN COMPOSITIONS FOR THE INHIBITION OF REACTIVE OXYGEN SPECIES” (Nu Skin International, Inc., priority 2008, published 2009)
